Data as given in PubChem BioAssay (NCI).
Where “and” joins values, the source holds several entries; their conditions need not be identical. Equal values may be shown once.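 Values below derive from 48-hour exposures of cells grown in 96-well plates, with endpoints linearly interpolated between the two concentrations bracketing the appropriate inhibition level. The concentration for 50% growth inhibition is given as GI50. At the TGI there is no net growth.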

Tests used:
Assay in all cases: DTP human tumour cell line panel, 48 h
[1] = system: SN12C renal
[2] = system: MALME-3M melanoma
[3] = system: IGROV1 ovarian
[4] = system: HCC-2998 colon
[5] = system: NCI-H23 lung
[6] = system: SW-620 colon
[7] = system: UO-31 renal
[8] = system: COLO 205 colon
[9] = system: NCI-H522 lung
[10] = system: SK-MEL-2 melanoma

Row | SMILES | TGI [1] | TGI [2] [µM] | TGI [3] [µM] | TGI [4] [µM] | TGI [5] [µM] | TGI [6] [µM] | TGI [7] [µM] | TGI [8] [µM] | TGI [9] [µM] | TGI [10] [µM] | GI50 [1] [µM] | GI50 [3] [µM] | GI50 [5] [µM] | GI50 [6] [µM] | GI50 [7] [µM] | GI50 [8] [µM] | GI50 [10] [µM] | GI50 [2] [µM] | GI50 [4] [µM] | GI50 [9] [µM]
1 | CCOC(=O)N[C@H]1CCc2cc(O)c(OC)c(OC)c2-c2ccc(SC)c(=O)cc21 | > 58.9 µM | > 100 | > 86.9 | > 100 | 9.95 | > 100 | > 100 | 1.22 | 0.046 | 0.173 |  |  |  |  |  |  |  |  |  | 
2 | C/C1=C\CC[C@@]2(C)O[C@@H]2C[C@@H]2[C@H](C/C(C)=C/CC1)OC(=O)C21CCN=N1 (some centres not stated) | 75 µM and > 100 µM | > 75 | > 100 | > 75 | > 100 | > 100 | > 100 | > 100 | 75 | > 100 | > 100 | > 100 | > 100 | > 100 | > 100 | > 100 | > 100 |  |  | 
3 | CO/N=C(\COc1ccc2c(c1)oc(=O)c1cc(OC)ccc12)c1ccc(F)cc1 | > 100 µM | 84.6 | 42.8 | 72.7 | > 100 | > 100 | 32.3 | > 100 | 32.5 | 72.8 | 27.2 | 19.3 | 37.6 | 34.8 | 12.7 | 59.6 | 23.1 | 26.7 | 23.6 | 13
4 | Cn1cnc([N+](=O)[O-])c1SC1=NCCS1 | > 100 µM | 70.2 | > 100 | > 100 | > 100 | > 100 | > 100 | > 100 | 41.7 | > 100 |  |  |  |  |  |  |  |  |  | 
5 | O=C1/C(=C/c2ccc([N+](=O)[O-])o2)Oc2ccccc21 | 5.53 µM | 3.78 | 3.62 | 3.94 | 5.08 | 1.61 | 2.86 | 2.91 | 1.45 | 3.73 | 2.17 | 1.37 | 1.95 | 0.373 | 1.07 | 1.35 | 1.91 | 1.86 | 1.98 | 0.384
6 | O=C(N/N=c1/ccoc2cccnc12)N1CCN(c2ncccn2)CC1 | 14.8 µM | 7.22 | 7.98 | 6.59 | 16.7 | 10.6 | 3.96 | 7.57 | 17.2 | 8.42 | 1.57 | < 0.01 | 0.0308 | < 0.0131 | 0.397 | < 0.01 | 1.11 | 1.17 | 0.905 | 1.02
7 | Oc1ccc2c3c1OC1C(=NN=C4CCC5(O)C6Cc7ccc(O)c8c7C5(CCN6CC5CC5)C4O8)CCC4(O)C(C2)N(CC2CC2)CCC314 (configuration not stated) | > 59.9 µM | 34.5 | > 100 | 52.7 | 99 | 41.6 | > 100 | 38.4 | 57.4 | 18.9 |  |  |  |  |  |  |  |  |  | 
8 | C=C(C)[C@@H]1CC[C@]2(C(=O)O)CC[C@]3(C)[C@H](CC[C@@H]4[C@@]5(C)C[C@@H](CC#Cc6ccc(Br)cc6)C(=O)C(C)(C)[C@@H]5CC[C@]43C)[C@@H]12 | 9.25 µM | 14.1 | 24.9 | > 100 | 23.9 | > 100 | > 100 | > 100 | 75 | 9.48 | 2.99 | 4.07 | 3.83 | 3.73 | > 100 | 18.2 | 2.58 | 3.48 | 36 | 2.95
9 | CNc1cccnc1/C=N/NC(N)=S | > 8.25 µM | > 10 | > 10 | > 10 | > 6.65 | > 10 | 4.5 | > 10 | > 10 | > 10 |  |  |  |  |  |  |  |  |  | 
10 | COc1ccc2c(c1)C(=O)/C(=C/c1ccc([N+](=O)[O-])s1)O2 | 2.32 µM | 1.76 | 1.2 | 2.05 | 3.53 | 0.507 | 0.614 | 1.68 | 0.395 | 0.875 | 0.483 | 0.349 | 0.709 | 0.211 | 0.232 | 0.49 | 0.325 | 0.451 | 0.514 | 0.195
11 | COc1cc(OC)c2cc(C(=O)O)c(=O)oc2c1 | > 100 µM | > 100 | > 100 | > 100 | > 100 | > 100 | > 100 | > 100 | > 100 | > 53.8 | > 100 | > 84.9 | > 100 | > 100 | > 61.7 | > 100 | > 35.6 | > 100 | > 100 | > 71.5
